What was measured:
SK-N-MC cells [1] = experiment: Proliferation assay with MTT on plates treated with laminin (FIG. 8a); type: cell-based, human; details: plate treated with laminin vs standard 24-well plate
Description: (§1) As a result, SK-N-MC cells were cultured in standard 24-well plates and in 24-well plates previously treated with laminin (Laminin 24-well Multiwell plates, BD) at a cell density of 300,000 cells per well and 1 ml of specific medium consisting of MEM medium supplemented with 2 mM L-glutamine, 1 mM sodium pyruvate, 0.1 mM non-essential amino acids, […] of gentamicin and 1% antibiotic at 37° C. and 5% CO2.
(§2) The day after seeding the SK-N-MC cells in the standard 24-well plates and in 24-well plates treated with laminin, transport conditions are simulated according to the specifications described in the previous example.
Once the time necessary for the cells to recover from transport has elapsed, the proliferation rate of both cultures is determined by means of measuring cell proliferation at times 24 and 48 h using the MTT test described in the previous example.

SK-N-MC cells [2] = experiment: Verification of morphology and cell density by microscopy on plates treated with laminin (FIG. 8b); type: cell-based, human; details: plates with laminin vs normal plate, same number of starting cells
Description: as §1, §2
In turn, the analysis of the cell morphology of the cultures of SK-N-MC in normal 24-well plates and 24-well plates treated with laminin shown in FIG. 8b proves that the number of cells in the culture in plates with laminin is greater than that of the culture in a normal plate despite the fact that the number of starting cells for both of them is the same, which reaffirms the results obtained from measuring the proliferation by means of MTT. The non-detection of the difference in the cell density by the proliferation assay by means of MTT can be due to the high cell confluence of both cultures.

Substance: laminin
- proliferation rate (MTT) (SK-N-MC cells [1]; after 24 hours in culture): an increase in the proliferation
- proliferation rate (MTT) (SK-N-MC cells [1]; after 48 hours in culture): equal
- number of cells in the culture (microscopy) (SK-N-MC cells [2]): greater

— US8709803B2, “Cell transport system comprising a homogeneous mixture of agarose and agarase” (Histocell, S.L., priority 2008, dated 2014)
